Laboratory results taken from patent US7049313B2, “ATM inhibitors” (Kudos Pharmaceuticals Ltd., priority 2002, dated 2006).
Where a name gives a salt, the structure may show the parent alone.

biological target: T1, ATM (Homo sapiens, UniProt Q13315); test: In vitro ATM inhibition assay (phosphorylation of GSTp53N66 on serine 15); assay type: biochemical
T1 construct: ATM protein was immunoprecipitated from HeLa cell nuclear extract; endogenous in cells; host or cells: HeLa cell nuclear extract (immunoprecipitate)
T1 sequence (Q13315 whole entry): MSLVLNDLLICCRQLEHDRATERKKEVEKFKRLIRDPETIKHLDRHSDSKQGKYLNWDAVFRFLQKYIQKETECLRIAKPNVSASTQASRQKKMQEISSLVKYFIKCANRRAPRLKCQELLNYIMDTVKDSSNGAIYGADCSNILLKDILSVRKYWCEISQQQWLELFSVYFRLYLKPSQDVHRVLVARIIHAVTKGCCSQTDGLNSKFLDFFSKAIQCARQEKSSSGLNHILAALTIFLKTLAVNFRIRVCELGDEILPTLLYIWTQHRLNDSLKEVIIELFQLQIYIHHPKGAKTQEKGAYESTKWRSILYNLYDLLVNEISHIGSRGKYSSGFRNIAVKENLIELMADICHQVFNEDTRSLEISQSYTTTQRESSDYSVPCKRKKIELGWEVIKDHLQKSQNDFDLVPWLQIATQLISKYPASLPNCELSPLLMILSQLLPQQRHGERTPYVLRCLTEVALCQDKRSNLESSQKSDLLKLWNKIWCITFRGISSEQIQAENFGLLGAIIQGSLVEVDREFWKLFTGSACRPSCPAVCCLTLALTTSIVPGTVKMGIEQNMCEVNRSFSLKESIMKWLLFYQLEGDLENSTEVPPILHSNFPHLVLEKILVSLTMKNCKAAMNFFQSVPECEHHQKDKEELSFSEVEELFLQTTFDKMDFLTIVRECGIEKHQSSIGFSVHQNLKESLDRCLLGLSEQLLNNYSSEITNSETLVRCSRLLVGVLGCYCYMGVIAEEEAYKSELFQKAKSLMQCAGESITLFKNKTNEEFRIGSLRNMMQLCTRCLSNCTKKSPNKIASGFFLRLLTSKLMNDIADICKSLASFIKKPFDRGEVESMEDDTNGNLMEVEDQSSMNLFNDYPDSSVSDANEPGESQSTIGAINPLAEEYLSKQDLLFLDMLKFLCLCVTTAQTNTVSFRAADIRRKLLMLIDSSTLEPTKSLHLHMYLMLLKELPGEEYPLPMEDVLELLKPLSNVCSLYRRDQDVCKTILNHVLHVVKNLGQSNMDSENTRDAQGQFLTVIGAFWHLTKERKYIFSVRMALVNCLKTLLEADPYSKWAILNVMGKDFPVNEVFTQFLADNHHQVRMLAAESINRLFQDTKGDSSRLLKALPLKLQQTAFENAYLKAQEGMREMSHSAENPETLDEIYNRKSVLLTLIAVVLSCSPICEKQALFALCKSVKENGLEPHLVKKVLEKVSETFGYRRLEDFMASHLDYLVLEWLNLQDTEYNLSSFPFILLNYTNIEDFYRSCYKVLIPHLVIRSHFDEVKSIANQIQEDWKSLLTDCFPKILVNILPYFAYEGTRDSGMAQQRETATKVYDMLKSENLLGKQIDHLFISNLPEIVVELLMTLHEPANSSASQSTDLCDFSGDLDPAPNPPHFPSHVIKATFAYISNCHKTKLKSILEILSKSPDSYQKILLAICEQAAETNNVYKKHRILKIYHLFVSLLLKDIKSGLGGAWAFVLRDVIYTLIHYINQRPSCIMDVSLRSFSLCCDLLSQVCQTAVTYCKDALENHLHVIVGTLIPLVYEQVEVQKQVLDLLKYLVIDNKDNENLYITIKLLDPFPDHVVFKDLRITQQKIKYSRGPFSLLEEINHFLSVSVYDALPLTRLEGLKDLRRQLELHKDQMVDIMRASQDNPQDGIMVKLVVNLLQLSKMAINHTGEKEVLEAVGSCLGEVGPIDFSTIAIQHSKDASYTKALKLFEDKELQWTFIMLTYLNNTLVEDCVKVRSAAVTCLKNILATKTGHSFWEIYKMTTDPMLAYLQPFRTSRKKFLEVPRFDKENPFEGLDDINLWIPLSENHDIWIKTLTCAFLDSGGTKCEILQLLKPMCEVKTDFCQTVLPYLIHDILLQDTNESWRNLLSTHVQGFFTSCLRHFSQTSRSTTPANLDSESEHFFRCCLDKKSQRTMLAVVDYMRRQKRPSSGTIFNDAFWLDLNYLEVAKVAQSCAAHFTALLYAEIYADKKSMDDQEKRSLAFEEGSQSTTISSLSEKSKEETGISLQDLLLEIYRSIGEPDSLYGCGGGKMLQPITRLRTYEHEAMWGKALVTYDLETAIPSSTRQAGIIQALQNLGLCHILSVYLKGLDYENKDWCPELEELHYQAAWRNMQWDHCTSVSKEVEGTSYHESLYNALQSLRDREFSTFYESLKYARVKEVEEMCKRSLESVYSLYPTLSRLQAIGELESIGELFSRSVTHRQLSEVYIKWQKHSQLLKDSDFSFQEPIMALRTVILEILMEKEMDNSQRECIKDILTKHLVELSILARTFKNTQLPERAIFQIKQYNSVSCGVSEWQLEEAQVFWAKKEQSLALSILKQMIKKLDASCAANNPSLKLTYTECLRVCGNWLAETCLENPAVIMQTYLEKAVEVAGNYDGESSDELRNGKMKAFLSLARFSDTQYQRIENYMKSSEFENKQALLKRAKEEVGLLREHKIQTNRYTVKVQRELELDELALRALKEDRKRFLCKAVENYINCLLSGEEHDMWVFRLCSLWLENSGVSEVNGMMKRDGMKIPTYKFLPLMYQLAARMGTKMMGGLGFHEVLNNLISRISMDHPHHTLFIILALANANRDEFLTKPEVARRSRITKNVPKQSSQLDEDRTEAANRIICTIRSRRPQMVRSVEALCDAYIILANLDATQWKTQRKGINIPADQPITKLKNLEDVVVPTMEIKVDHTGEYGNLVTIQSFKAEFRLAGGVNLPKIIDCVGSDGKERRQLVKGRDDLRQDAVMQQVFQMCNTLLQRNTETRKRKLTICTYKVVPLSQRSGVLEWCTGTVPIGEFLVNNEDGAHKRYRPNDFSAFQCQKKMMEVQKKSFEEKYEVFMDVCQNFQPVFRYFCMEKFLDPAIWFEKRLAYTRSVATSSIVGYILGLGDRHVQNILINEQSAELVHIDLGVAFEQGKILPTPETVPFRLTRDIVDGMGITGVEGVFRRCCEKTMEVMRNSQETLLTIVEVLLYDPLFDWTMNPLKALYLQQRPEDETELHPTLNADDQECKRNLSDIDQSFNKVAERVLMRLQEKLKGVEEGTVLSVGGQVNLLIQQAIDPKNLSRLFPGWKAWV
Method: In vitro ATM inhibition Assays
In order to assess the inhibitory action of the compounds against ATM in vitro, the following assay was used to determine IC50 values.
ATM protein was immunoprecipitated from HeLa cell nuclear extract using rabbit polyclonal anti-sera raised to the C-terminal ˜500 amino-acid residues of the human ATM protein. The immunoprecipitation was performed according to the methodology described by Banin, S. et al. (1998). 10 μl of immunoprecipitated ATM in Buffer C (50 mM Hepes, pH 7.4, 6 mM MgCl2, 150 mM NaCl, 0.1 mM sodium orthovanadate, 4 mM MnCl2, 0.1 mM dithiothreitol, 10% glycerol) was added to 32.5 μl of buffer C containing 1 μg of the ATM substrate GSTp53N66 in a V-bottomed 96 well polypropylene plate. The GSTp53N66 substrate is the amino terminal 66 amino acid residues of human wild type p53 fused to glutathione S-transferase. ATM phosphorylates p53 on the residue serine 15 (Banin, S. et al. (1998)). Varying concentrations of inhibitor were then added. […] After 10 minutes of incubation at 37° C., the reactions were initiated by the addition of 5 μl of 500 μM Na-ATP. After 1 hour with shaking at 37° C., 150 μl of phosphate buffered saline (PBS) was added to the reaction and the plate centrifuged at 1500 rpm for 10 minutes. 5 μl of the reaction was then transferred to a 96 well opaque white plate containing 45 μl of PBS to allow the GSTp53N66 substrate to bind to the plate wells. The plate was covered and incubated at room temperature for 1 hour with shaking before discarding the contents. The plate wells were washed twice by the addition of PBS prior to the addition of 3% (w/v) bovine serum albumin (BSA) in PBS. The plate was incubated at room temperature for 1 hour with shaking before discarding the contents and washing twice with PBS. To the wells, 50 μl of a 1:10,000 dilution of primary phosphoserine-15 antibody (Cell Signaling Technology, #9284L) in 3% BSA/PBS was added to detect the phosphorylation event on the serine 15 residue of p53 elicited by the ATM kinase. After 1 hour of incubation at room temperature with shaking, the wells were washed four times with PBS prior to the addition of an anti-rabbit HRP conjugated secondary antibody (Pierce, 31462) with shaking for 1 hour at room temperature. The wells were then washed four times with PBS before the addition of chemiluminescence reagent (NEN Renaissance, NEL105). The plate was then shaken briefly, covered with a transparent plate seal and transferred to a TopCount NXT for chemiluminescent counting. Counts per second, following a one second counting time, were recorded for each reaction.
The enzyme activity for each compound is then calculated using the following equation: […]

Question: `COCCN(CCOC)CC(=O)Nc1ccc2c(c1)Cc1cccc(-c3cc(=O)cc(N4CCOCC4)o3)c1S2` [Compound 55] was tested. Which IC50 did it give?
Answer: < 200 nM

Question: For `O=C(NCc1ccco1)c1ccc2c(c1)Sc1cccc(-c3cc(=O)cc(N4CCOCC4)o3)c1S2` [Compound 150], which IC50 is on record?
Answer: < 200 nM

Question: Which IC50 does the source give for `CC(=O)OC(C(=O)Nc1ccc2c(c1)Cc1cccc(-c3cc(=O)cc(N4CCOCC4)o3)c1S2)c1ccccc1` (stereo not drawn) [Compound 41] here?
Answer: < 200 nM

Question: Which IC50 does the source give for `S=c1cc(-c2cccc3c2Sc2ccccc2S3)oc(N2CCOCC2)c1` [Compound 18, 2-Thianthren-1-yl-6-morpholin-4-yl-pyran-4-thione] here?
Answer: < 200 nM

Question: For `O=C(CNCCN1CCOCC1)Nc1ccc2c(c1)Cc1cccc(-c3cc(=O)cc(N4CCOCC4)o3)c1S2` [Compound 67], which IC50 is on record?
Answer: < 200 nM

Question: How did the IC50 turn out when `O=C(O)CCC(=O)Nc1ccc2c(c1)Cc1cccc(-c3cc(=O)cc(N4CCOCC4)o3)c1S2` [Compound 48] was run?
Answer: < 200 nM

Question: Which IC50 does the source give for `COc1ccccc1C(=O)Nc1ccc2c(c1)Cc1cccc(-c3cc(=O)cc(N4CCOCC4)o3)c1S2` [Compound 29] here?
Answer: < 200 nM

Question: For `O=C(Nc1ccc(-c2cc(=O)cc(N3CCOCC3)o2)c2c1Cc1ccccc1S2)c1ccc(-c2ccccn2)s1` [Compound 110], which IC50 is on record?
Answer: < 200 nM

Question: Which IC50 does the source give for `NCC(=O)Nc1ccc2c(c1)Cc1cccc(-c3cc(=O)cc(N4CCOCC4)o3)c1S2` [Compound 66] here?
Answer: < 200 nM

Question: `O=C(NCC1CC1)c1ccc2c(c1)Sc1cccc(-c3cc(=O)cc(N4CCOCC4)o3)c1S2` [Compound 152] was tested. Which IC50 did it give?
Answer: < 200 nM

Question: For `NCCNCCC(=O)Nc1ccc2c(c1)Cc1cccc(-c3cc(=O)cc(N4CCOCC4)o3)c1S2` [Compound 75], which IC50 is on record?
Answer: < 200 nM

Question: `O=C(NCCN1CCCC1)c1ccc2c(c1)Sc1cccc(-c3cc(=O)cc(N4CCOCC4)o3)c1S2` [Compound 167] was tested. Which IC50 did it give?
Answer: < 200 nM

Question: `O=C(CN1CCCNCC1)Nc1ccc2c(c1)Cc1cccc(-c3cc(=O)cc(N4CCOCC4)o3)c1S2` [Compound 60] was tested. Which IC50 did it give?
Answer: < 200 nM

Question: For `O=C(Nc1ccc(-c2cc(=O)cc(N3CCOCC3)o2)c2c1Cc1ccccc1S2)c1cccnc1` [Compound 119], which IC50 is on record?
Answer: < 200 nM

Question: `O=C(Nc1ccc2c(c1)Cc1cccc(-c3cc(=O)cc(N4CCOCC4)o3)c1S2)c1ccco1` [Compound 27] was tested. Which IC50 did it give?
Answer: < 200 nM

Question: With `O=c1cc(-c2cccc3c2Oc2ccccc2S3)oc(N2CCOCC2)c1` [Compound 5, 2-Phenoxathiin-4-yl-6-morpholin-4-yl-pyran-4-one] as the compound, how does the IC50 read?
Answer: < 200 nM

Question: For `O=C(CCSc1ncn[nH]1)Nc1ccc2c(c1)Cc1cccc(-c3cc(=O)cc(N4CCOCC4)o3)c1S2` [Compound 82], which IC50 is on record?
Answer: < 200 nM

Question: Which IC50 does the source give for `O=C(CCN1CCCCC1)Nc1ccc2c(c1)Cc1cccc(-c3cc(=O)cc(N4CCOCC4)o3)c1S2` [Compound 69] here?
Answer: < 200 nM

Question: For `O=C(O)c1ccc2c(c1)Sc1cccc(-c3cc(=O)cc(N4CCOCC4)o3)c1S2` [Compound 138, 6-(6-Morpholin-4-yl-4-oxo-4H-pyran-2-yl)-thianthrene-2-carboxylate sodium salt], which IC50 is on record?
Answer: < 200 nM

Question: With `O=C(Nc1ccc2c(c1)Cc1cccc(-c3cc(=O)cc(N4CCOCC4)o3)c1S2)c1cccnc1` [Compound 26] as the compound, how does the IC50 read?
Answer: < 200 nM

Question: `N#Cc1ccc(C(=O)Nc2ccc(-c3cc(=O)cc(N4CCOCC4)o3)c3c2Cc2ccccc2S3)cc1` [Compound 113] was tested. Which IC50 did it give?
Answer: < 200 nM

Question: `O=C(NC1CCCCC1)c1ccc2c(c1)Sc1cccc(-c3cc(=O)cc(N4CCOCC4)o3)c1S2` [Compound 151] was tested. Which IC50 did it give?
Answer: < 200 nM

Question: How did the IC50 turn out when `O=C(NCCc1ccccn1)c1ccc2c(c1)Sc1cccc(-c3cc(=O)cc(N4CCOCC4)o3)c1S2` [Compound 173] was run?
Answer: < 200 nM

Question: How did the IC50 turn out when `NCCNCC(=O)Nc1ccc2c(c1)Cc1cccc(-c3cc(=O)cc(N4CCOCC4)o3)c1S2` [Compound 57] was run?
Answer: < 200 nM

Question: With `CC(=O)N1CCC(C(=O)Nc2ccc3c(c2)Cc2cccc(-c4cc(=O)cc(N5CCOCC5)o4)c2S3)CC1` [Compound 36] as the compound, how does the IC50 read?
Answer: < 200 nM

Question: Which IC50 does the source give for `COC(=O)CCC(=O)Nc1ccc2c(c1)Cc1cccc(-c3cc(=O)cc(N4CCOCC4)o3)c1S2` [Compound 39] here?
Answer: < 200 nM

Question: With `O=C(c1ccc2c(c1)Sc1cccc(-c3cc(=O)cc(N4CCOCC4)o3)c1S2)N1CCCC1` [Compound 156] as the compound, how does the IC50 read?
Answer: < 200 nM

Question: How did the IC50 turn out when `CN1CCN(CCC(=O)Nc2ccc3c(c2)Cc2cccc(-c4cc(=O)cc(N5CCOCC5)o4)c2S3)CC1` [Compound 71] was run?
Answer: < 200 nM

Question: Which IC50 does the source give for `CC(=O)Oc1ccccc1C(=O)Nc1ccc2c(c1)Cc1cccc(-c3cc(=O)cc(N4CCOCC4)o3)c1S2` [Compound 37] here?
Answer: < 200 nM

Question: Which IC50 does the source give for `CN1CCCC1CCNC(=O)c1ccc2c(c1)Sc1cccc(-c3cc(=O)cc(N4CCOCC4)o3)c1S2` (stereo not drawn) [Compound 168] here?
Answer: < 200 nM

Question: For `O=C(NNC(=O)c1ccc2c(c1)Sc1cccc(-c3cc(=O)cc(N4CCOCC4)o3)c1S2)c1ccccc1` [Compound 162], which IC50 is on record?
Answer: < 200 nM

Question: With `O=C(CSc1ncn[nH]1)Nc1ccc2c(c1)Cc1cccc(-c3cc(=O)cc(N4CCOCC4)o3)c1S2` [Compound 64] as the compound, how does the IC50 read?
Answer: < 200 nM

Question: How did the IC50 turn out when `O=C(NCc1ccncc1)c1ccc2c(c1)Sc1cccc(-c3cc(=O)cc(N4CCOCC4)o3)c1S2` [Compound 172] was run?
Answer: < 200 nM

Question: `NCCC(=O)Nc1ccc2c(c1)Cc1cccc(-c3cc(=O)cc(N4CCOCC4)o3)c1S2` [Compound 84] was tested. Which IC50 did it give?
Answer: < 200 nM

Question: How did the IC50 turn out when `CN(CCc1ccccn1)C(=O)c1ccc2c(c1)Sc1cccc(-c3cc(=O)cc(N4CCOCC4)o3)c1S2` [Compound 174] was run?
Answer: < 200 nM

Question: Which IC50 does the source give for `CC(C)(C)OC(=O)Nc1ccc(-c2cc(=O)cc(N3CCOCC3)o2)c2c1Cc1ccccc1S2` [Compound 127] here?
Answer: < 200 nM

Question: With `O=C(NC1CCCC1)c1ccc2c(c1)Sc1cccc(-c3cc(=O)cc(N4CCOCC4)o3)c1S2` [Compound 155] as the compound, how does the IC50 read?
Answer: < 200 nM

Question: `O=C(Cc1cccs1)Nc1ccc2c(c1)Cc1cccc(-c3cc(=O)cc(N4CCOCC4)o3)c1S2` [Compound 31] was tested. Which IC50 did it give?
Answer: < 200 nM

Question: `O=C(c1ccc2c(c1)Sc1cccc(-c3cc(=O)cc(N4CCOCC4)o3)c1S2)N1CCCCC1` [Compound 157] was tested. Which IC50 did it give?
Answer: < 200 nM

Question: For `Cc1cc(C(=O)Nc2ccc3c(c2)Cc2cccc(-c4cc(=O)cc(N5CCOCC5)o4)c2S3)c(C)o1` [Compound 42], which IC50 is on record?
Answer: < 200 nM

Question: For `COC(=O)C(=O)Nc1ccc2c(c1)Cc1cccc(-c3cc(=O)cc(N4CCOCC4)o3)c1S2` [Compound 34], which IC50 is on record?
Answer: < 200 nM

Question: With `O=C(CCNCCO)Nc1ccc2c(c1)Cc1cccc(-c3cc(=O)cc(N4CCOCC4)o3)c1S2` [Compound 74] as the compound, how does the IC50 read?
Answer: < 200 nM

Question: Which IC50 does the source give for `CCCCNC(=O)c1ccc2c(c1)Sc1cccc(-c3cc(=O)cc(N4CCOCC4)o3)c1S2` [Compound 143] here?
Answer: < 200 nM

Question: With `O=c1cc(-c2ccc(OCCSc3ncn[nH]3)c3c2Cc2ccccc2S3)oc(N2CCOCC2)c1` [Compound 102] as the compound, how does the IC50 read?
Answer: < 200 nM

Question: With `O=C(NCC(F)(F)F)c1ccc2c(c1)Sc1cccc(-c3cc(=O)cc(N4CCOCC4)o3)c1S2` [Compound 148] as the compound, how does the IC50 read?
Answer: < 200 nM

Question: For `O=C(CCN1CCCNCC1)Nc1ccc2c(c1)Cc1cccc(-c3cc(=O)cc(N4CCOCC4)o3)c1S2` [Compound 78], which IC50 is on record?
Answer: < 200 nM

Question: With `CN(C)C(=O)c1ccc2c(c1)Sc1cccc(-c3cc(=O)cc(N4CCOCC4)o3)c1S2` [Compound 140] as the compound, how does the IC50 read?
Answer: < 200 nM

Question: How did the IC50 turn out when `O=c1cc(-c2ccccc2Sc2ccccc2)oc(N2CCOCC2)c1` [Compound 9, 2-(2-Phenylsulfanyl-phenyl)-6-morpholin-4-yl-pyran-4-one] was run?
Answer: < 20000 nM

Question: For `O=C(NCc1ccccn1)c1ccc2c(c1)Sc1cccc(-c3cc(=O)cc(N4CCOCC4)o3)c1S2` [Compound 170], which IC50 is on record?
Answer: < 200 nM

Question: `O=C(Nc1ccc2c(c1)Cc1cccc(-c3cc(=O)cc(N4CCOCC4)o3)c1S2)c1cccs1` [Compound 30] was tested. Which IC50 did it give?
Answer: < 200 nM

Question: `O=C(CCN(CCO)CCO)Nc1ccc2c(c1)Cc1cccc(-c3cc(=O)cc(N4CCOCC4)o3)c1S2` [Compound 72] was tested. Which IC50 did it give?
Answer: < 200 nM
